Test results from patent US12091425B2 (AMGEN INC., priority 2016, dated 2024).

Molecular target: T1, Mcl-1/Bim interaction, recombinant human Mcl-1 (171-327) (Homo sapiens, UniProt Q07820)
T1 construct: made in house
Assay: Cell free Mcl-1: Bim Affinity Assay (Mcl-1 HTRF)
Type: binding
Conditions: cell free Mcl-1:Bim TR-FRET, recombinant human Mcl-1 (171-327)
Outline: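 Biotin-Bim(51-76) peptide, TR-FRET readout, overnight incubation; IC50 from duplicate competition curves, 4-parameter fit.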

T1 sequence (Q07820 171-327): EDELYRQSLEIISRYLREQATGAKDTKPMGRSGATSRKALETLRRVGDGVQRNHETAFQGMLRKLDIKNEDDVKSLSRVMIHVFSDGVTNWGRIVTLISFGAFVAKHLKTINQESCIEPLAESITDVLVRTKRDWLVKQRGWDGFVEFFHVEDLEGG

Structure (SMILES)	IC50
C[C@@H]1CC/C=C/[C@H](NC(=O)N(C)C)[C@@H]2CC[C@H]2CN2C[C@@]3(CCCc4cc(Cl)ccc43)COc3ccc(cc32)C(=O)NS1(=O)=O [Example 601, 3-((1S,3′R,6′R,7′S,8′E,12′R)-6-chloro-12′-methyl-13′,13′-dioxido-15′-oxo-3,4-dihydro-2H-spiro[naphthalene-1,22′-[20]oxa[13]thia[1,14]diazatetracyclo[14.7.2.0^3,6.0^19,24]pentacosa [8,16,18,24]tetraen]-7′-yl)-1,1-dimethylurea-trifluoroacetate]	1.33 nM
C[C@@H]1CC/C=C/C(=O)[C@@H]2CC[C@H]2CN2C[C@@]3(CCCc4cc(Cl)ccc43)COc3ccc(cc32)C(=O)NS1(=O)=O [Example 604, (1S,3′R,6′R,8′E,12′R)-6-chloro-12′-methyl-3,4-dihydro-2H,7′H,15′H-spiro[naphthalene-1,22′-[20]oxa[13]thia[1,14]diazatetracyclo[14.7.2.0^3,6.0^19,24]pentacosa [8,16,18,24]tetraene]-7′,15′-dione 13′,13′-dioxide]	9.58 nM
C[C@@H]1CC/C=C/[C@H](O)[C@@H]2CC[C@H]2CN2C[C@@]3(CCc4cc(Cl)ccc43)COc3ccc(cc32)C(=O)NS1(=O)=O [Example 698, (1S,3′R,6′R,7′S,8′E,12′R)-5-chloro-7′-hydroxy-12′-methyl-2,3-dihydro-15′H-spiro[indene-1,22′-[20]oxa[13]thia[1,14]diazatetracyclo[14.7.2.0^3,6.0^19,24]pentacosa [8,16,18,24]tetraen]-15′-one 13′,13′-dioxide]	0.679 nM
C[C@@H]1CCC[C@H](O)[C@@H]2CC[C@H]2CN2C[C@@]3(CCCc4cc(Cl)ccc43)COc3ccc(cc32)C(=O)NS1(=O)=O [Example 761, (1S,3′R,6′R,7′S,11′R)-6-chloro-7′-hydroxy-11′-methyl-3,4-dihydro-2H,14′H-spiro[naphthalene-1,21′-[19]oxa[12]thia[1,13]diazatetracyclo[13.7.2.0^3,6.0^18,23]tetracosa[15,17,23]trien]-14′-one 12′,12′-dioxide]	1.78 nM
CC[C@@H]1C/C=C/[C@H](O)[C@@H]2CC[C@H]2CN2C[C@@]3(CCCc4cc(Cl)ccc43)COc3ccc(cc32)C(=O)NS1(=O)=O [Example 762, (1S,3′R,6′R,7′S,8′E,11′R)-6-chloro-7′-hydroxy-11′-ethyl-3,4-dihydro-2H,14′H-spiro[naphthalene-1,21′-[19]oxa[12]thia[1,13]diazatetracyclo[13.7.2.0^3,6.0^18,23]tetracosa[8,15,17,23]tetraen]-14′-one 12′,12′-dioxide]	0.576 nM
CC[C@@H]1C/C=C/[C@H](OC)[C@@H]2CC[C@H]2CN2C[C@@]3(CCCc4cc(Cl)ccc43)COc3ccc(cc32)C(=O)NS1(=O)=O [Example 763, (1S,3′R,6′R,7′S,8′E,11′R)-6-chloro-11′-ethyl-7′-methoxy-3,4-dihydro-2H,14′H-spiro[naphthalene-1,21′-[19]oxa[12]thia[1,13]diazatetracyclo[13.7.2.0^3,6.0^18,23]tetracosa[8,15,17,23]tetraen]-14′-one 12′,12′-dioxide]	2.93 nM
CC1(C)C/C=C/[C@H](O)[C@@H]2CC[C@H]2CN2C[C@@]3(CCCc4cc(Cl)ccc43)COc3ccc(cc32)C(=O)NS1(=O)=O [Example 769, (1S,3′R,6′R,7′S,8′E)-6-chloro-7′-hydroxy-11′,11′-dimethyl-3,4-dihydro-2H,14′H-spiro[naphthalene-1,21′-[19]oxa[12]thia[1,13]diazatetracyclo[13.7.2.0^3,6.0^18,23]tetracosa[8,15,17,23]tetraen]-14′-one 12′,12′-dioxide]	0.971 nM
CC1(C)CCC[C@H](O)[C@@H]2CC[C@H]2CN2C[C@@]3(CCCc4cc(Cl)ccc43)COc3ccc(cc32)C(=O)NS1(=O)=O [Example 770, (1S,3′R,6′R,7′S)-6-chloro-7′-hydroxy-11′,11′-dimethyl-3,4-dihydro-2H,14′H-spiro[naphthalene-1,21′-[19]oxa[12]thia[1,13]diazatetracyclo[13.7.2.0^3,6.0^18,23]tetracosa[15,17,23]trien]-14′-one 12′,12′-dioxide]	1.33 nM
O=C1NS(=O)(=O)C/C=C/C[C@H](O)[C@@H]2CC[C@H]2CN2C[C@@]3(CCCc4cc(Cl)ccc43)COc3ccc1cc32 [Example 771, (1S,3′R,6′R,7′S,9′E)-6-chloro-7′-hydroxy-3,4-dihydro-2H,14′H-spiro[naphthalene-1,21′-[19]oxa[12]thia[1,13]diazatetracyclo [13.7.2.0^3,6.0^18,23]tetracosa[9,15,17,23]tetraen]-14′-one 12′,12′-dioxide]	4.09 nM
O=C1NS(=O)(=O)CCOCC[C@H](O)[C@@H]2CC[C@H]2CN2C[C@@]3(CCCc4cc(Cl)ccc43)COc3ccc1cc32 [Example 779, (3′R,6′R,7S,22S)-6′-chloro-7-hydroxy-3′,4′-dihydro-2′H,15H-spiro[10,20-dioxa-13-thia-1,14-diazatetracyclo[14.7.2.0^3,6.0^19,24]pentacosa-16,18,24-triene-22, 1′-naphthalen]-15-one-13, 13-dioxide or (3′R,6′R,7R,22S)-6′-chloro-7-hydroxy-3′,4′-dihydro-2′H,15H-spiro[10,20-dioxa-13-thia-1,14-diazatetracyclo[14.7.2.0^3,6.0^19,24]pentacosa-16,18,24-triene-22, 1′-naphthalen]-15-one-13, 13-dioxide]	5.55 nM
CC[C@@H]1CC/C=C/[C@H](OC2COC2)[C@@H]2CC[C@H]2CN2C[C@@]3(CCCc4cc(Cl)ccc43)COc3ccc(cc32)C(=O)NS1(=O)=O [Example 783, (1S,3′R,6′R,7′S,8′E,12′R)-6-chloro-12′-ethyl-7′-(3-oxetanyloxy)-3,4-dihydro-2H,15′H-spiro[naphthalene-1,22′-[20]oxa[13]thia[1,14]diazatetracyclo [14.7.2.0^3,6.0^19,24]pentacosa[8,16,18,24]tetraen]-15′-one 13′,13′-dioxide]	1.04 nM
O=C1NS(=O)(=O)CC/C=C\C[C@H](O)[C@@H]2CC[C@H]2CN2C[C@@]3(CCCc4ccccc43)COc3ccc1cc32 [Example 807, (1S,3′R,6′R,7′S,9′Z)-7′-hydroxy-3,4-dihydro-2H,15′H-spiro[naphthalene-1,22′-[20]oxa[13]thia [1,14]diazatetracyclo[14.7.2.0^3,6.0^19,24]pentacosa[9,16,18,24]tetraen]-15′-one 13′,13′-dioxide]	42.3 nM
O=C1NS(=O)(=O)C/C=C/CC[C@H](O)[C@@H]2CC[C@H]2CN2C[C@@]3(CCCc4cc(Cl)ccc43)COc3ccc1cc32 [Example 808, (1S,3′R,6′R,7′S,10′E)-6-chloro-7′-hydroxy-3,4-dihydro-2H,15′H-spiro[naphthalene-1,22′-[20]oxa[13]thia[1,14]diazatetracyclo[14.7.2.0^3,6.0^19,24]pentacosa [10,16,18,24]tetraen]-15′-one 13′,13′-dioxide]	1.54 nM

The remaining lines, values ahead:

IC50	Structure (SMILES)
29.3 nM	O=C1NS(=O)(=O)CCOC/C=C/[C@@H]2CC[C@H]2CN2C[C@@]3(CCc4cc(Cl)ccc43)COc3ccc1cc32 [Example 817, (3R,6S,7E,22S)-5′-chloro-2′,3′-dihydro-15H-spiro[10,20-dioxa-13-thia-1,14-diazatetracyclo[14.7.2.0^3,6.0^19,24]pentacosa-7,16,18,24-tetraene-22,1′-inden]-15-one 13,13-dioxide]
13.6 nM	O=C1NS(=O)(=O)CCCCC[C@@H]2CC[C@H]2CN2C[C@@]3(CCCc4cc(Cl)ccc43)COc3ccc1cc32 [Example 818, (1S,3′R,6′R)-6-chloro-3,4-dihydro-2H,14′H-spiro[naphthalene-1,21′-[19]oxa[12]thia[1,13]diazatetracyclo[13.7.2.0^3,6.0^18,23]tetracosa[15,17,23]trien]-14′-one 12′,12′-dioxide]
48.2 nM	O=C1NS(=O)(=O)CCCCC[C@@H]2CC[C@H]2CN2C[C@@]3(CCCc4ccccc43)COc3ccc1cc32 [Example 823, (1S,3′R,6′R)-3,4-dihydro-2H,14′H-spiro[naphthalene-1,21′-[19]oxa[12]thia[1,13]diazatetracyclo[13.7.2.0^3,6.0^18,23]tetracosa [15,17,23]trien]-14′-one 12′,12′-dioxide]
26.4 nM	O=C1NS(=O)(=O)CC/C=C/[C@@H]2CC[C@H]2CN2C[C@@]3(CCCc4cc(Cl)ccc43)COc3ccc1cc32 [Example 825, (1S,3′R,6′S, 7′E)-6-chloro-3,4-dihydro-2H,13′H-spiro[naphthalene-1,20′-[18]oxa[11]thia[1,12]diazatetracyclo[12.7.2.0^3,6.0^17,22]tricosa[7,14,16,22]tetraen]-13′-one 11′,11′-dioxide]
9.87 nM	O=C1NS(=O)(=O)CCC/C=C/[C@@H]2CC[C@H]2CN2C[C@@]3(CCCc4cc(Cl)ccc43)COc3ccc1cc32 [Example 829, (1S,3′R,6′S, 7′E)-6-chloro-3,4-dihydro-2H,14′H-spiro[naphthalene-1,21′-[19]oxa[12]thia[1,13]diazatetracyclo[13.7.2.0^3,6.0^18,23]tetracosa [7,15,17,23]tetraen]-14′-one 12′,12′-dioxide]
21.1 nM	O=C1NS(=O)(=O)CCCC[C@@H]2CC[C@H]2CN2C[C@@]3(CCCc4cc(Cl)ccc43)COc3ccc1cc32 [Example 830, (1S,3′S,6′S)-6-chloro-3,4-dihydro-2H,13′H-spiro[naphthalene-1,20′-[18]oxa[11]thia[1,12]diazatetracyclo[14.7.2.0^3,6.0^19,24]tricosa[14, 16,22]trien]-13′-one 11′,11′-dioxide]
8.26 nM	O=C1NS(=O)(=O)CCCCCC(=O)[C@@H]2CC[C@H]2CN2C[C@@]3(CCCc4cc(Cl)ccc43)COc3ccc1cc32 [Example 832, (1S,3′R,6′R)-6-chloro-3,4-dihydro-2H,7′H,15′H-spiro[naphthalene-1,22′-[20]oxa[13]thia[1,14]diazatetracyclo[14.7.2.0^3,6.0^19,24]pentacosa [16,18,24]triene]-7′,15′-dione 13′,13′-dioxide]
